ChEMBL document CHEMBL1221198 (Nat Chem Biol, 2007)
pEC50, pIC50: −log10 of the molar value.

What was measured:
[1] = biological target: T1, Ribosomal protein S6 kinase alpha-3 (Homo sapiens, UniProt P51812); assay: Inhibition of PMA-stimulated RSK2 phosphorylation in HEK293 cells after 1 hr by Western blotting analysis; type: cell-based
[2] = biological target: T1, Ribosomal protein S6 kinase alpha-3; assay: Inhibition of His6-tagged RSK2 C-terminal domian expressed in Escherichia coli after 30 mins
HEK293 [3] = assay: Inhibition of RSK-mediated rpS6 phosphorylation at Ser236 residues in human PMA-stimulated HEK 293 cells at 30 uM after 1 hr by Western blotting; type: cell-based
HEK293 [4] = assay: Inhibition of RSK-mediated rpS6 phosphorylation at Ser235 residues in human PMA-stimulated HEK 293 cells at 30 uM after 1 hr by Western blotting; type: cell-based

T1 sequence (P51812 whole entry): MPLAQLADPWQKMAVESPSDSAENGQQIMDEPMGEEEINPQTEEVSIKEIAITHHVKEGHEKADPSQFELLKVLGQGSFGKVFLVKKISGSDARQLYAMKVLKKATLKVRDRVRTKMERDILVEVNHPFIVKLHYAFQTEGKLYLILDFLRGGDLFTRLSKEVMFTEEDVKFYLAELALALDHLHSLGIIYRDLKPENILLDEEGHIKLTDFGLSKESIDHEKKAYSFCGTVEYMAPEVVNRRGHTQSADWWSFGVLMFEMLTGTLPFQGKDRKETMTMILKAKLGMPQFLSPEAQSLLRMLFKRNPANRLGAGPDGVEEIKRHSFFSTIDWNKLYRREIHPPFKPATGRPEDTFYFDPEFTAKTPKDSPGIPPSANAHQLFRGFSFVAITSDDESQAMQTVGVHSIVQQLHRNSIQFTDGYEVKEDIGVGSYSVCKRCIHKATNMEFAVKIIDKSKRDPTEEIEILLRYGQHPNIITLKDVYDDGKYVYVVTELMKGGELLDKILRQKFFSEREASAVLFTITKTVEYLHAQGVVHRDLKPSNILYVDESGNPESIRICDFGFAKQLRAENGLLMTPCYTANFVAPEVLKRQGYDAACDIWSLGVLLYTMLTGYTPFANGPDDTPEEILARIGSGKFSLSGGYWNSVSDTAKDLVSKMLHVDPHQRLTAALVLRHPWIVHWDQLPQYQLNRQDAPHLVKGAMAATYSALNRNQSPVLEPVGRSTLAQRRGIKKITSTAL

pEC50 [1]	pIC50 [2]	Structure (SMILES)	inhibition (HEK293 [3]) [%]	inhibition (HEK293 [4]) [%]
5.00	5.77	CC1=CC(C)=[N+]2C1=Cc1ccc(CCC(=O)NCCCCCC(=O)NCCCCNC(=O)OCCCn3c(C(=O)CF)c(-c4ccc(C)cc4)c4c(N)ncnc43)n1[B-]2(F)F		
		CO[C@H]1C[C@@H]2CC[C@@H](C)[C@@](O)(O2)C(=O)C(=O)N2CCCC[C@H]2C(=O)O[C@H]([C@H](C)C[C@@H]2CC[C@@H](O)[C@H](OC)C2)CC(=O)[C@H](C)/C=C(\C)[C@@H](O)[C@@H](OC)C(=O)[C@H](C)C[C@H](C)/C=C/C=C/C=C/1C	76	76
